Several values for one entry are separate records, joined by “and”; a condition that tells them apart may be missing. Identical values can stand only once.
Columns and labels:
MrgprX1 [1] = target: T1, MrgprX1 (Homo sapiens, UniProt Q96LB2); assay: Calcium imaging of HEK293 cells transfected with Mrgpr-GFP constructs; assay type: cell-based
Experimental: (§1) The human Mrgpr family (i.e. MrgprXs) is much smaller than the murine family.
(§2) Serotonin also has a bicyclic structure. […] Quinine is another drug used to treat malaria and its side effects also include itch. However, it is unclear if quinine-induced itch is an allergic response.
(§3) HEK293 cells were cultured in growth medium consisted of 90% DMEM, 10% fetal bovine serum, 100 U/ml penicillin, and 100 μg/ml Streptomycin (Invitrogen) at 37° C. in the presence of […] and 5% CO2. HEK293 cells were transfected with Mrgpr-expression constructs using Lipofectamine 2000 (Invitrogen) according to the manufacturer's protocol.

MrgprX2 = target: T2, MrgprX2 (Homo sapiens, UniProt Q96LB1); assay: Calcium imaging of transfected HEK293 cells; assay type: cell-based
T2 construct: expressed in transfected cells; host or cells: HEK293
T2 sequence (Q96LB1 1-330): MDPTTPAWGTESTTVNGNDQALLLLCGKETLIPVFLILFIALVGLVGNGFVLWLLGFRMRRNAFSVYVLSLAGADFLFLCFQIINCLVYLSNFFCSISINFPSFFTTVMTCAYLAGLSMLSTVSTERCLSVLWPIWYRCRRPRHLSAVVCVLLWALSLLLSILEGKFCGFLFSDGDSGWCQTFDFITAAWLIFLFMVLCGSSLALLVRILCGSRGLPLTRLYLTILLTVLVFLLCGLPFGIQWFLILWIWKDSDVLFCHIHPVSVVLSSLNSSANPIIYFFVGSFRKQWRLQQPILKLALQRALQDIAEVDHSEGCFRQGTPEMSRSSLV
Source text: as §1

MrgprX3 = target: T3, MrgprX3 (Homo sapiens, UniProt Q96LB0); assay: Calcium imaging of transfected HEK293 cells; assay type: cell-based
T3 construct: expressed in transfected cells; host or cells: HEK293
Source text: as §1

mice = assay: Scratching behavior after pruritogen injection in mice; assay type: in vivo, mouse; settings: for total number of scratching bouts: first 30 min after CQ injection (200 μg/50 μl, 8 mM)
Source text: Kuraishi et al., (1995). […] F. (2007) Nature 448, 700-703).

DRG neurons [2] = assay: Calcium imaging of cultured dissociated DRG neurons; assay type: cell-based, mouse
Experimental: Dorsal root ganglia from all spinal levels of 4-week old mice or rats were collected in cold DH10 (90% DMEM/F-12, 10% FBS, 100 U/ml penicillin, and 100 μg/ml Streptomycin, Gibco) and treated with enzyme solution (5 mg/ml Dispase, 1 mg/ml Collagenase Type I in HPBS without Ca^++ and Mg^++, Gibco) at 37° C. Following trituration and centrifugation, cells were resuspended in DH10, plated on glass cover slips coated with poly-D-lysine (0.5 mg/ml, Stoughton, Mass.) and laminin (10 μg/ml, Invitrogen), cultured in an incubator (95% O2 and 5% CO2) at 37° C. and used within 24 hours.

DRG neurons [3] = assay: Whole-cell current-clamp recording of action potentials in DRG neurons; assay type: cell-based, mouse; settings: CQ 1 mM
Source text: To determine whether CQ can directly induce action potentials (APs) in dissociated DRG neurons, using whole-cell patch clamp recording. […] These studies provide strong evidence that CQ can directly excite a small subpopulation of sensory neurons in DRG and that Mrgprs are required for this effect. Similar to the mouse results, CQ induces robust activation in a subset of rat DRG neurons as determined by both an increase in [Ca^2+]i and generation of APs (FIG. 4).
Patch pipettes had resistances of 2-4 MΩ. […] All experiments were performed at room temperature ([…]).

MrgprA3 [4] = target: T4, MrgprA3 (Mus musculus, UniProt Q91WW3); assay: Rescue: Mrgpr-clusterΔ-/- DRG neurons electroporated with Mrgpr construct; assay type: cell-based
T4 sequence (Q91WW3 1-302): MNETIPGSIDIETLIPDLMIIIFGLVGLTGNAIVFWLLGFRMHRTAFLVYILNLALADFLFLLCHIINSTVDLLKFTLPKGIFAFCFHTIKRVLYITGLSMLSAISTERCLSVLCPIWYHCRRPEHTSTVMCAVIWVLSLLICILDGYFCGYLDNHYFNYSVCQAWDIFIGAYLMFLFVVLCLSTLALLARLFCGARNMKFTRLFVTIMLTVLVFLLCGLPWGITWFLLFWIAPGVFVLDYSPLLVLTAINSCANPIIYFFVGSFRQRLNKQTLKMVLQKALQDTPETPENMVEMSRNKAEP
Experimental: (§5) To determine whether MrgprA3 or MrgprX1 can rescue the phenotypes of DRG neurons from Mrgpr-clusterΔ^−/− mice, the Mrgpr expression constructs used in the heterologous studies were electroporated into dissociated adult DRG neurons from these mice. After 24 hour in culture, expression and membrane localization of the transfected Mrgprs in the mutant neurons could be readily visualized by GFP (FIG. 8G).

MrgprX1 [5] = target: T1, MrgprX1; assay: as above; assay type: cell-based, mouse
Experimental: as §5

[6] = cited from earlier work
[7] = cited from earlier work; remark: listed apart in the source
MrgprA1 [8] = target: T5, MrgprA1 (Mus musculus, UniProt Q91WW5); assay: Calcium imaging of HEK293 cells transfected with Mrgpr-GFP constructs; assay type: cell-based; set-up: expressed in transfected cells; settings: CQ 1 mM, FMRF 2 μM
T5 sequence (Q91WW5 1-304): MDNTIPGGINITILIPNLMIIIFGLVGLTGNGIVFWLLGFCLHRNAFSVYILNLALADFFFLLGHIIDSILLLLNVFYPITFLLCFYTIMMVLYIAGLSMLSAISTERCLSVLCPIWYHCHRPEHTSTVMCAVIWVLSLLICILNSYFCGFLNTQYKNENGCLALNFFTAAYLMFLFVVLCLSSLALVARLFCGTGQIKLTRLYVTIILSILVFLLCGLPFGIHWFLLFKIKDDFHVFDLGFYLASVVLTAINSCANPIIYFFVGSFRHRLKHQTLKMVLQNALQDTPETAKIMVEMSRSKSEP
Source text: (§4) Each of the twelve Mrgprs that were deleted in Mrgpr-clusterΔ^−/− mice were cloned into a mammalian expression vector (FIG. 1A), and transfected individually into human embryonic kidney (HEK) 293 cells. By fusing green fluorescent protein (GFP) to the C-termini of the Mrgpr coding sequences, both transfected cells and the proper membrane localization of the receptors was visualized. […] Increased [Ca^2+]i resulting from activation of the receptors was monitored by calcium imaging.
HEK293 cells were transfected with Mrgpr-expression constructs using Lipofectamine 2000 (Invitrogen) according to the manufacturer's protocol.

MrgprA3 [9] = target: T4, MrgprA3; assay: as above; assay type: cell-based; set-up: expressed in transfected cells; host or cells: HEK293
Source text: as §4, §2, §3

rats = assay: Scratching behavior after intradermal injection in rats; settings: 500 μg/50 μl, first 30 min
MrgprA1 [10] = target: T5, MrgprA1; assay: Rescue: Mrgpr-clusterΔ-/- DRG neurons electroporated with Mrgpr construct; assay type: cell-based; set-up: expressed in transfected cells; host or cells: dissociated adult DRG neurons of Mrgpr-cluster-deleted mice
Experimental: as §5

T1 sequence (Q96LB2 whole entry): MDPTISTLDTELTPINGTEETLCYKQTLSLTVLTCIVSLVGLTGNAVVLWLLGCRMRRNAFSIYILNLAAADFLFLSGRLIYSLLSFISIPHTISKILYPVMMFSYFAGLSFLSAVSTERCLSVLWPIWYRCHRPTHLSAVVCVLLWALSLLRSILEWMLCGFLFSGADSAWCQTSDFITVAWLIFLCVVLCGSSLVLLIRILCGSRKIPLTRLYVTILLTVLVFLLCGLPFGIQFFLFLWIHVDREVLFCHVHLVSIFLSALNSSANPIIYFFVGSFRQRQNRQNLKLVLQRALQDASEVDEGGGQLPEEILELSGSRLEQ
T3 sequence (Q96LB0 whole entry): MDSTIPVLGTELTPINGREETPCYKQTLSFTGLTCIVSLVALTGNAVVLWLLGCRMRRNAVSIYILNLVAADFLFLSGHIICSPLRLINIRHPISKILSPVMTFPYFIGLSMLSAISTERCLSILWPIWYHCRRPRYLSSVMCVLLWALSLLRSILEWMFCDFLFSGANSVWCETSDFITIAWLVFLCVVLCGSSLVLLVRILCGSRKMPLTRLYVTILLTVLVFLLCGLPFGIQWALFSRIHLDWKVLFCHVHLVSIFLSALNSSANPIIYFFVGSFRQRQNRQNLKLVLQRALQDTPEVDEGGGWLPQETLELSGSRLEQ

CCN(CC)CCCC(C)Nc1ccnc2cc(Cl)ccc12 (centres unmarked) [CQ, Chloroquine]
activation of MrgprX1 (increased [Ca2+]i) (MrgprX1 [1]; BAM8-22 2 μM): responded
EC50 (MrgprX1 [1]; dose-response, calcium imaging): 297.7 ± 2.1 µM
response of MrgprX2-expressing cells (MrgprX2): completely insensitive
response of MrgprX3-expressing cells (MrgprX3): completely insensitive
occurrence of the first scratching behavior (mice; Mrgpr-clusterΔ-/- (KO) mice): 280.5 ± 35.0 s
total number of scratching bouts (mice; Mrgpr-clusterΔ-/- mice): 104±13
occurrence of the first scratching behavior (mice; WT mice): 57.8 ± 25.4 s
time at which scratching peaked (mice; WT mice): ≤ 15 min
first bout observed after injection (mice; WT mice, typical): 1 to 2 min
total number of scratching bouts (mice; WT mice): 278±21
DRG neurons responding (DRG neurons [2]; Mrgpr-clusterΔ-/- mice): none of the neurons
percentage of DRG neurons responding with increased [Ca2+]i (DRG neurons [2]; WT mice, CQ 1 mM, BAM8-22 2 μM): ~4.4% and 4-5%
reduction of calcium responses on sequential application (DRG neurons [2]; WT neurons): ~20%
neurons showing any response (DRG neurons [3]; Mrgpr-clusterΔ-/- mice): none of 11
action potentials in CQ-sensitive neurons (DRG neurons [3]; WT DRG): displayed a train of APs
[Ca2+]i response of MrgprA3-expressing mutant neurons (MrgprA3 [4]): showed increased [Ca^2+]i
action potentials in MrgprA3-expressing mutant neurons (MrgprA3 [4]): generated numerous APs
MrgprX1-electroporated GFP-positive neurons generating a train of APs (MrgprX1 [5]): 5 out of 7
[Ca2+]i response of MrgprX1-electroporated mutant neurons (MrgprX1 [5]): sensitivity
concentration in patient plasma ([6]; plasma): micromolar range
concentration reached in skin and other pigmented tissues ([6]; skin): high micromolar to millimolar concentrations
patients refusing further treatment because of unbearable itch ([7]; African patients): ~30%
incidence of itch as side effect ([7]; black Africans): up to 70%
response of MrgprA1-transfected cells (increased [Ca2+]i) (MrgprA1 [8]): fewer than half of MrgprA1-tranfected cells responded
activation of MrgprA3 (increased [Ca2+]i) (MrgprA3 [9]): strong response
EC50 (MrgprA3 [9]; dose-response, calcium imaging): 27.6 ± 2.03 µM
scratching responses (rats): evoked profound scratching responses
MrgprA1-electroporated neurons eliciting a few APs (MrgprA1 [10]): 3 out of 7
[Ca2+]i response of MrgprA1-electroporated mutant neurons (MrgprA1 [10]): only a small portion responded

Reference: patent US9771592B2, “Methods and compositions for treating or preventing pruritis” (The Johns Hopkins University, priority 2008, dated 2017)
